Here are results for 13 compounds from PubChem BioAssay (NCI).

Common to all, as to assay: growth of human tumour cells (NCI), 48 h
The subject of test [1] is ACHN renal.
Test [2] has as its system CAKI-1 renal.
The test system of test [3] is EKVX NSCLC.
Test [4] concerns IGROV1 ovarian.
Test [5] concerns OVCAR-4 ovarian.
The test system of test [6] is RXF 393 renal.
Test [7] relates to SF-539 CNS.
The test system of test [8] is SK-MEL-5 melanoma.
Test [9] concerns SK-OV-3 ovarian.
The subject of test [10] is SNB-75 CNS.

SMILES strings stand for the structures.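 Step 1: Grow cells in 96-well plates. Step 2: Expose to compound for 48 hours at 5 concentrations. Step 3: Interpolate endpoints linearly; if unreached, use highest concentration. GI50 = concentration required for 50% inhibition of growth. TGI denotes the concentration required for complete inhibition of growth.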 Where a SMILES comes first, the peptide text is derived from it. The star is where a group is joined. Fmoc = O=C(OCC1c2ccccc2-c2ccccc21)*; Boc = CC(C)(C)OC(=O)*

In the case of `COc1ccc(C(=O)C(c2ccc(OCc3ccccc3)cc2)c2ccc(OCc3ccccc3)cc2)cc1`, the TGI in [1], in test [2], in test [3], in test [4], in test [5] and in [6] was > 100 µM in each case. Moreover, the TGI in test [7], in test [8], in test [9] and in [10] was > 100 µM throughout.

For the compound `OCCN1CCN2C=C(C3CCCC4N(CCO)CCN34)CCC21` (configuration not stated), the TGI in test [1] was > 100 µM; in test [2], > 100 µM; in [3], > 100 µM; in test [4], > 100 µM; in [5] it was > 100 µM; in test [6], > 85 µM. The TGI was > 92.2 µM in [7], > 100 µM in test [8], > 100 µM in test [9] and > 100 µM in test [10].

In the case of `Clc1ccc(-c2c(C3=NCCCN3)nnn2-c2ccccc2)cc1`, the TGI in [1], in test [2], in test [3], in [4], in test [5] and in test [6] was > 100 µM each time. The TGI in test [7], in test [8], in test [9] and in test [10] was > 100 µM throughout.

Regarding `CN1CCN(c2ccc3nc(-c4ccc5nc(-c6ccc(O)cc6)[nH]c5c4)[nH]c3c2)CC1`, the TGI in [1] turned out to be 666 µM; in test [2], 306 µM; in [3], 489 µM; in test [4], 436 µM; in test [5], 609 µM; in test [6] it was 529 µM. Further, the TGI amounted to 237 µM in test [7], 158 µM in [8], 948 µM in test [9] and 619 µM in test [10]. The values for the GI50 in test [3] and in test [8] were 257 µM and 97.9 µM, respectively.

In the case of `O=c1c2cc(Cl)cc(Cl)c2oc2nc3n(c(=O)c12)CCCS3`, the TGI in test [1], in [2], in test [3], in test [4], in test [5] and in [6] was > 100 µM each time. The TGI in test [7], in [8], in test [9] and in test [10] was > 100 µM each time.

In the case of `Cc1cccc(-c2cc(=O)c3c(C)cc(C)nc3[nH]2)c1`, the TGI in test [1], in [2], in test [3], in test [4], in test [5] and in [6] was > 100 µM throughout. The TGI in test [7] was 12.1 µM; in test [8], 15.8 µM; in test [9] it was > 100 µM; in [10], 7.36 µM.

Take `O=C1C=C(OCCCCl)C(=O)c2c(O)ccc(O)c21`: the TGI in test [1] is 2.96 µM; in test [2], 3.4 µM; in [3], 3.19 µM; in test [4], 3.44 µM; in test [5], 1.71 µM; in test [6] it was 3.09 µM. The TGI is 2.76 µM in [7], 0.306 µM in [8], 3.85 µM in test [9] and 2.69 µM in test [10].

In the case of `CCOC(=O)c1c2c(c(O)c3ccccc3c(O)n(Cc3ccccc3)c1C)C(=O)C=CC2=O`, the TGI in test [1] is > 100 µM; in test [2], > 100 µM; in test [3] it was > 100 µM; in [4], > 100 µM; in test [5], > 100 µM; in test [6], 75.9 µM. The TGI in test [7], in [8], in test [9] and in test [10] was > 100 µM in each case.

Turning to `CC(C)(C)OC(=O)NCCCCC(NC(=O)C(Cc1c[nH]c2ccccc12)NC(=O)OCC1c2ccccc2-c2ccccc21)C(=O)N1CCCC1C(=O)NCC(N)=O` (configuration not stated) (Fmoc-WK(Boc)PG-NH2; configuration not given here), the TGI in test [1], in test [2], in test [3], in test [4], in test [5] and in [6] was > 100 µM in each case. Moreover, the TGI in test [7], in test [8], in test [9] and in test [10] was > 100 µM throughout.

Turning to `C[N+](C)(C)CC(=O)N/N=C/c1ccncc1`, the TGI in test [1], in [2], in [3], in test [4], in [5] and in [6] was > 100 µM throughout. Also, the TGI in test [7], in [8], in [9] and in test [10] was > 100 µM throughout.

With `Ic1cc2c(cc1C1SCCCS1)OCO2`, the TGI in test [1], in test [2], in [3], in test [4], in test [5] and in test [6] was > 100 µM throughout. For the same compound, the TGI in test [7], in test [8], in [9] and in test [10] was > 100 µM each time.

For the compound `COC(=O)/C=C/C1(O)C=CC(=O)C=C1`, the TGI in test [1] was 5.25 µM; in test [2], 4.46 µM; in [3] it was 10.4 µM; in test [4], 7.74 µM; in test [5], 15.6 µM; in test [6], > 25.1 µM. For the same compound, the TGI in test [7] was found to be 4.45 µM; in test [8] it was 17.6 µM; in [9] it was 42.2 µM; in test [10], 24 µM.

With `COc1cc(-c2[o+]c3cc(O)cc(O)c3cc2O)cc(O)c1O`, the TGI in test [1], in [2], in [3], in [4], in [5] and in test [6] was > 100 µM in each case. Further, the TGI in test [7], in test [8], in test [9] and in [10] was > 100 µM each time.
